According to patent US4605670A, “Method for percutaneously administering metoclopramide” (priority 1984, dated 1986):
Where a name gives a salt, the structure may show the parent alone.

Assay type: in vitro ADME, male albino rats
Source text: Rat full thickness skins were used in the diffusion cell method of Michaels, AlChE Journal, 21 [5], 985-996, (1975). The rat skin was mounted in the diffusion cell in a vertical position between the upstream and the downstream compartments; the exposed area of the skin approximated 4.15 cm^2.
The skin was excised from the shaved abdominal site of male albino rats weighing 250~300 g, and washed with normal saline solution after the subcutaneous fat was carefully removed with scissors.
An MCP solution of known concentration was added to the upper compartment of the cell, which was exposed to the epithelial side of the skin and a normal saline solution was placed in the lower compartment.
The penetration rate was studied in a thermostated bath at 30° C. At appropriate intervals samples were withdrawn from the lower compartment and subsequently analyzed for MCP concentration by standard analytical methods. This regimen was used in Examples 1 to 10.
Unless otherwise indicated, in all of the examples, the active agent was MCP.HCl, the MCP.HCl flux is given in terms of ug/cm^2 /8hrs, 25 volume percent of the adjuvant with respect to the adjuvant plus solvent volume was used in combination with 2.5 weight percent of active agent based on the weight of the adjuvant plus solvent; otherwise, all percents are volume percents based on adjuvant, solvent or adjuvant plus solvent volume, depending on the system.
Compositions were typically prepared by merely mixing the adjuvant and solvent together, then mixing the MCP.HCl in the mixture and then, if used, mixing the diol therein. The order of mixing is not important.

## CCN(CC)CCNC(=O)c1cc(Cl)c(N)cc1OC [MCP HCl, metoclopramide.HCl, reference compound]
  MCP HCl flux with increasing MCP HCl concentration: Flux increases linearly with increasing drug concentration

## Hydroxy ethyl cellulose
  MCP.HCl Flux: 1296 ug/cm^2 /8 hrs

## Hydroxy propyl cellulose
  MCP.HCl Flux: 843 ug/cm^2 /8 hrs
